Measured values from patent publication US8017612B2, “Piperazine compound and use thereof as a HCV polymerase inhibitor” (priority 2006, dated 2011).
pIC50: −log10 of the molar value. Counter-ions that a name gives are not always drawn.

Legend:
[1] = target: T1, HCV polymerase (NS5B) type 1a (Hepatitis C virus genotype 1a, UniProt P26664); test: Assay of enzyme (HCV polymerase) inhibitory activity, type 1a enzyme; assay type: biochemical, HCV type 1a (cloned from the blood of patients)
T1 construct: made in house; host or cells: Escherichia coli (by the 'similar method' of the 1b enzyme)
Method in brief: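 IC50 values derive from radioactivity of newly synthesized RNA with versus without test compound. The enzyme was C-terminally truncated type 1a NS5B, 1.5 μg/ml, run 60 min at 25° C with 3H-UTP-labelled nucleotides.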

[2] = target: T2, HCV polymerase (NS5B) type 1b (Hepatitis C virus genotype 1b, UniProt P26663); test: Assay of enzyme (HCV polymerase) inhibitory activity, type 1b enzyme; assay type: biochemical, HCV BK strain (type 1b)
T2 construct: a region encoding NS5B (J Virol 1991 March, 65(3), 1105-13, 544 amino acids after deletion of 47 amino acids on the C-terminal); 6xHis (C); made in house; host or cells: Escherichia coli
Method in brief: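 Polymerase activity was followed as radiolabelled UTP incorporation by E. coli-expressed, His-tagged NS5B of HCV type 1b lacking its last 47 residues. Conditions: 2 μM UTP, 50 μM other NTPs, Mg2+ buffer at pH 7.5, 25 °C for 60 min. Inhibition relative to compound-free reactions gave IC50.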

[3] = HCV polymerase inhibitory activity IC50, 1a, type 1a enzyme
[4] = HCV polymerase inhibitory activity IC50, 1b, type 1b enzyme
[5] = HCV polymerase inhibitory activity (IC50), 1a, type 1a enzyme 1.5 μg/ml, 25° C., 60 min
[6] = HCV polymerase inhibitory activity (IC50), 1b, type 1b enzyme 0.5 μg/ml, 25° C., 60 min

SMILES | pIC50 [1, 3] | pIC50 [2, 4] | pIC50 [1, 5] | pIC50 [2, 6]
CCOC(=O)CN(C)c1ccc(S(=O)(=O)N2CCN(c3cnc4cnccc4n3)C[C@@H]2C(=O)NCc2ccc(OC(F)(F)F)cc2)cc1 [Example 764, (methyl-{4-[(R)-4-pyrido[3,4-b]pyrazin-2-yl-2-(4-trifluoromethoxy-benzylcarbamoyl)-piperazine-1-sulfonyl]-phenyl}-amino)-acetic acid ethyl ester] | > 7.00 | > 7.00 | – | –
O=C(NCc1ccc(C2CC2)cc1)[C@H]1CN(c2nc3nc(Cl)ncc3s2)CCN1S(=O)(=O)c1ccc(OC(F)(F)F)cc1 [Example 971, (R)-4-(5-chloro-thiazolo[4,5-d]pyrimidin-2-yl)-1-(4-trifluoromethoxy-benzenesulfonyl)-piperazine-2-carboxylic acid 4-cyclopropyl-benzylamide] | > 7.00 | > 7.00 | – | –
O=C(NCc1ccc(OC(F)(F)F)cc1)[C@H]1CNCCN1S(=O)(=O)c1ccc(OC(F)(F)F)cc1 [Example 783, (R)-1-(4-trifluoromethoxy-benzenesulfonyl)-piperazine-2-carboxylic acid 4-trifluoromethoxy-benzylamide] | < 6.00 | < 6.00 | – | –
CCC(F)(F)c1ccc(CNC(=O)[C@H]2CN(c3nc4ccncc4s3)CCN2S(=O)(=O)c2ccc(OC(F)(F)F)cc2)cc1 [Example 715, (R)-4-thiazolo[5,4-c]pyridin-2-yl-1-(4-trifluoromethoxy-benzenesulfonyl)-piperazine-2-carboxylic acid 4-(1,1-difluoro-propyl)-benzylamide] | > 7.00 | > 7.00 | – | –
CCCc1ccc(CNC(=O)[C@H]2CN(C(C)=O)CCN2S(=O)(=O)c2ccc(OC(F)(F)F)cc2)cc1N [Example 635, (R)-4-acetyl-1-(4-trifluoromethoxy-benzenesulfonyl)-piperazine-2-carboxylic acid 3-amino-4-propyl-benzylamide] | – | – | < 6.00 | 6.00 to 7.00
CCCc1ccc(CNC(=O)[C@H]2CN(c3ccc(C(=O)O)cc3)CCN2S(=O)(=O)c2ccc(OC(F)(F)F)cc2)cc1 [Example 413, 4-[(R)-3-(4-propyl-benzylcarbamoyl)-4-(4-trifluoromethoxy-benzenesulfonyl)-piperazin-1-yl]-benzoic acid] | – | – | 6.00 to 7.00 | > 7.00
Cc1cc(=O)n2nc(N3CCN(S(=O)(=O)c4ccc(OC(F)(F)F)cc4)[C@@H](C(=O)NCc4ccc(OC(F)(F)F)cc4)C3)sc2n1 [Example 920, (R)-4-(7-methyl-5-oxo-5H-[1,3,4]thiadiazolo[3,2-a]pyrimidin-2-yl)-1-(4-trifluoromethoxy-benzenesulfonyl)-piperazine-2-carboxylic acid 4-trifluoromethoxy-benzylamide] | 6.00 to 7.00 | > 7.00 | – | –
O=C(NCc1ccc(OC(F)(F)F)cc1)[C@H]1CN(c2ccn3ncnc3n2)CCN1S(=O)(=O)c1ccc(OC(F)(F)F)cc1 [Example 750, (R)-4-[1,2,4]triazolo[1,5-a]pyrimidin-5-yl-1-(4-trifluoromethoxy-benzenesulfonyl)-piperazine-2-carboxylic acid 4-trifluoromethoxy-benzylamide] | > 7.00 | > 7.00 | – | –
O=C(NCc1ccc(OC(F)(F)F)cc1)[C@H]1CN(c2nc3cnnc(Cl)c3s2)CCN1S(=O)(=O)c1ccc(OC(F)(F)F)cc1 [Example 869, (R)-4-(7-chloro-thiazolo[4,5-d]pyridazin-2-yl)-1-(4-trifluoromethoxy-benzenesulfonyl)-piperazine-2-carboxylic acid 4-trifluoromethoxy-benzylamide] | > 7.00 | > 7.00 | – | –
CCCc1ccc(CNC(=O)[C@H]2CN(c3nc4cn[nH]c(=O)c4s3)CCN2S(=O)(=O)c2ccc(OC(F)(F)F)cc2)cc1 [Example 819, (R)-4-(7-oxo-6,7-dihydro-thiazolo[4,5-d]pyridazin-2-yl)-1-(4-trifluoromethoxy-benzenesulfonyl)-piperazine-2-carboxylic acid 4-propyl-benzylamide] | > 7.00 | > 7.00 | – | –
CC(=O)N1CCN(S(=O)(=O)c2ccc(N3CCOCC3)nc2)C(C(=O)NCc2ccc(C(F)(F)F)cc2)C1 (stereo not shown) [Example 70, 4-acetyl-1-(6-morpholin-4-yl-pyridine-3-sulfonyl)-piperazine-2-carboxylic acid 4-trifluoromethyl-benzylamide hydrochloride] | – | – | < 6.00 | < 6.00
CCCc1ccc(CNC(=O)[C@H]2CN(c3cnc(C(=O)O)cn3)CCN2S(=O)(=O)c2ccc(-c3ccccc3)cc2)cc1 [Example 701, (R)-4-(biphenyl-4-sulfonyl)-3-(4-propyl-benzylcarbamoyl)-3,4,5,6-tetrahydro-2H-[1,2′]bipyrazinyl-5′-carboxylic acid] | > 7.00 | > 7.00 | – | –
CC(C)c1ccc(CNC(=O)[C@H]2CN(C(=O)Nc3ccncc3)CCN2S(=O)(=O)c2ccc(C(F)(F)F)cc2)cc1 [Example 347, (R)-4-(4-trifluoromethyl-benzenesulfonyl)-piperazine-1,3-dicarboxylic acid 3-(4-isopropyl-benzylamide) 1-pyridin-4-ylamide] | – | – | 6.00 to 7.00 | 6.00 to 7.00
CC(C)c1ccc(CNC(=O)[C@H]2CN(c3cc(C(=O)O)ccn3)CCN2S(=O)(=O)c2ccc(C(F)(F)F)cc2)cc1 [Example 349, 2-[(R)-3-(4-isopropyl-benzylcarbamoyl)-4-(4-trifluoromethyl-benzenesulfonyl)-piperazin-1-yl]-isonicotinic acid trifluoroacetate] | – | – | < 6.00 | 6.00 to 7.00
CC(=O)N1CCN(S(=O)(=O)c2ccc(C(C)C)cc2)[C@@H](C(=O)NCc2ccc(C(C)C)cc2)C1 [Example 137, (R)-4-acetyl-1-(4-isopropyl-benzenesulfonyl)-piperazine-2-carboxylic acid 4-isopropyl-benzylamide] | – | – | > 7.00 | > 7.00
O=C(NCc1ccc(OC(F)(F)F)cc1)[C@H]1CN(c2nc3ncncc3s2)CCN1S(=O)(=O)c1ccc(C(F)(F)F)cc1 [Example 886, (R)-4-thiazolo[4,5-d]pyrimidin-2-yl-1-(4-trifluoromethyl-benzenesulfonyl)-piperazine-2-carboxylic acid 4-trifluoromethoxy-benzylamide] | > 7.00 | > 7.00 | – | –
CC(C)c1cc(=O)nc2sc(N3CCN(S(=O)(=O)c4ccc(OC(F)(F)F)cc4)[C@@H](C(=O)NCc4ccc(OC(F)(F)F)cc4)C3)nn12 [Example 1088, (R)-4-(5-isopropyl-7-oxo-7H-[1,3,4]thiadiazolo[3,2-a]pyrimidin-2-yl)-1-(4-trifluoromethoxy-benzenesulfonyl)-piperazine-2-carboxylic acid 4-trifluoromethoxy-benzylamide] | > 7.00 | > 7.00 | – | –
CCCc1ccc(S(=O)(=O)N2CCN(C(=O)Nc3cccc(OCC(=O)OCC)c3)C[C@@H]2C(=O)NCc2ccc(C(C)C)cc2)cc1 [Example 281, (3-{[(R)-3-(4-isopropyl-benzylcarbamoyl)-4-(4-propyl-benzenesulfonyl)-piperazine-1-carbonyl]-amino}-phenoxy)-acetic acid ethyl ester] | – | – | 6.00 to 7.00 | > 7.00
CCCc1ccc(CNC(=O)[C@H]2CN(C(=O)Nc3ccccc3)CCN2S(=O)(=O)c2ccc(OC(F)(F)F)cc2)cc1 [Example 830, (R)-4-(4-trifluoromethoxy-benzenesulfonyl)-piperazine-1,3-dicarboxylic acid 1-phenylamide 3-(4-propyl-benzylamide)] | 6.00 to 7.00 | > 7.00 | – | –
Cc1ncc2ncc(N3CCN(S(=O)(=O)c4ccc(OC(F)(F)F)cc4)[C@@H](C(=O)NCc4ccc(OC(F)(F)F)cc4)C3)nc2n1 [Example 767, (R)-4-(2-methyl-pteridin-7-yl)-1-(4-trifluoromethoxy-benzenesulfonyl)-piperazine-2-carboxylic acid 4-trifluoromethoxy-benzylamide] | > 7.00 | > 7.00 | – | –
CCCc1ccc(CNC(=O)[C@H]2CN(c3nc4c(C(=O)OCC)nncc4s3)CCN2S(=O)(=O)c2ccc(CC)cc2)cc1 [Example 891, 2-[(R)-4-(4-ethyl-benzenesulfonyl)-3-(4-propyl-benzylcarbamoyl)-piperazin-1-yl]-thiazolo[4,5-d]pyridazine-4-carboxylic acid ethyl ester] | > 7.00 | > 7.00 | – | –
COC(=O)c1ccc(S(=O)(=O)N2CCN(C(C)=O)CC2C(=O)NCc2ccc(C(F)(F)F)cc2)cc1 (stereo not shown) [Example 106, 4-[4-acetyl-2-(4-trifluoromethyl-benzylcarbamoyl)-piperazine-1-sulfonyl]-benzoic acid methyl ester] | – | – | < 6.00 | < 6.00
CC(=O)N1CCN(S(=O)(=O)c2ccc3c(c2)OC(F)(F)C(F)(F)O3)[C@@H](C(=O)NCc2ccc(C(C)C)cc2)C1 [Example 306, (R)-4-acetyl-1-(2,2,3,3-tetrafluoro-2,3-dihydro-benzo[1,4]dioxine-6-sulfonyl)-piperazine-2-carboxylic acid 4-isopropyl-benzylamide] | – | – | 6.00 to 7.00 | 6.00 to 7.00
